This note sets out measurements from US11492347B2 (ENYO PHARMA, priority 2018, dated 2022).

The test system of this assay is H1N1 (influenza A/New Caledonia/20/99). The assay is described as follows: microbe, parasite or virus in culture. The following applies: H1N1, A549, 48 h. The format is cell-based.

The molecule `O=C(Nc1sc2c(c1C(=O)O)CCC1(CC1)C2)c1ccc(N2CCOCC2)cc1` [Compound #31, 2-[(4-Morpholinobenzoyl)amino]spiro[5,7-dihydro-4H-benzothiophene-6,1′-cyclopropane]-3-carboxylic acid] gave an IC50 of 100 nM.

`CC1(C)Cc2c(sc(NC(=O)c3ccc(OCC4COC4)cc3)c2C(=O)O)C(C)(C)C1` [#167, 5,5,7,7-Tetramethyl-2-[[4-(oxetan-3-ylmethoxy)benzoyl]amino]-4,6-dihydrobenzothiophene-3-carboxylic acid] registered an IC50 of 108 nM.

`CC1(C)CCc2c(sc(NC(=O)c3ccc(N4CCOCC4)cn3)c2C(=O)O)C1` [#229, 6,6-Dimethyl-2-[(5-morpholinopyridine-2-carbonyl)amino]-5,7-dihydro-4H-benzothiophene-3-carboxylic acid] had an IC50 of 370 nM.

In turn, `Cn1cc(C(=O)Nc2sc3c(c2C(=O)O)CCC(C)(C)C3)cn1` [#212, 6,6-Dimethyl-2-[(1-methylpyrazole-4-carbonyl)amino]-5,7-dihydro-4H-benzothiophene-3-carboxylic acid] gave an IC50 of 900 nM.

As for `CC1(C)Cc2c(sc(NC(=O)c3ccc(OC4CCOCC4)cc3)c2C(=O)O)C(C)(C)C1` [#170, 5,5,7,7-Tetramethyl-2-[(4-tetrahydropyran-4-yloxybenzoyl)amino]-4,6-dihydrobenzothiophene-3-carboxylic acid], half-maximal inhibition (IC50) required 35 nM.

`COCCNc1ccc(C(=O)Nc2sc3c(c2C(=O)O)C(C)CC(C)(C)C3)cc1` (centres unmarked) [Compound #145, 2-1-[[4-(2-Methoxyethylamino)benzoyl]amino]-4,6,6-trimethyl-5,7-dihydro-411-benzothiophene-3-carboxylic acid] came in with an IC50 of 32 nM.

Regarding `Cn1cc(C(=O)Nc2sc3c(c2C(=O)O)CC(C)(C)CC3)cn1` [#202, 5,5-Dimethyl-2-[(1-methylpyrazole-4-carbonyl)amino]-6,7-dihydro-4H-benzothiophene-3-carboxylic acid], the IC50 is 900 nM.

The molecule `CC1CC(C)(C)Cc2sc(NC(=O)c3ccccc3)c(C(=O)O)c21` (centres unmarked) [Compound #44, 2-Benzamido-4,6,6-trimethyl-5,7-dihydro-4H-benzothiophene-3-carboxylic acid] had an IC50 of 90 nM.

For the molecule `COC1CCN(c2ccc(C(=O)Nc3sc4c(c3C(=O)O)CC(C)(C)CC4(C)C)cc2)CC1` [Compound #155, 2-[[4-(4-Methoxy-1-piperidyl)benzoyl]amino]-5,5,7,7-tetramethyl-4,6-dihydrobenzothiophene-3-carboxylic acid], the IC50 stood at 10 nM.

Molecule `CC1(C)CCc2c(sc(NC(=O)c3ccnc(N4CCOCC4)c3)c2C(=O)O)C1` [#222, 6,6-Dimethyl-2-[(2-morpholinopyridine-4-carbonyl)amino]-5,7-dihydro-4H-benzothiophene-3-carboxylic acid] yielded a concentration for half-maximal inhibition (IC50) of 51 nM.

`CC1(C)CCc2sc(NC(=O)c3ccc(N4CCOCC4)cc3)c(C(=O)O)c21` [Compound #41, 4,4-Dimethyl-2-[(4-morpholinobenzoyl)amino]-5,6-dihydrocyclopenta[b]thiophene-3-carboxylicacid]: the midpoint of inhibition, the IC50, lay at 105 nM.

On to `COCCOc1ccc(C(=O)Nc2sc3c(c2C(=O)O)CC(C)(C)CC3(C)C)cc1` [#168, 2-[[4-(2-Methoxyethoxy)benzoyl]amino]-5,5,7,7-tetramethyl-4,6-dihydrobenzothiophene-3-carboxylic acid], for which half-maximal inhibition (IC50) was put at 23.2 nM.

Molecule `CC(=O)N1CC(Nc2ccc(C(=O)Nc3sc4c(c3C(=O)O)CC(C)(C)CC4(C)C)cc2)C1` [Compound #133, 2-[[4-[(1-Acetylazetidin-3-yl)amino]benzoyl]amino]-5,5,7,7-tetramethyl-4,6-dihydrobenzothiophene-3-carboxylic acid] showed an IC50 of 750 nM.

`COc1ccc(C(=O)Nc2sc3c(c2C(=O)O)C(C)(C)CC3)cc1OC` [Compound #38, 2-[(3,4-Dimethoxybenzoyl)amino]-4,4-dimethyl-5,6-dihydrocyclopenta[b]thiophene-3-carboxylic acid] came in with an IC50 of 339 nM.

On to `CC1(C)Cc2c(sc(NC(=O)c3ccc(OCC4CCOCC4)cc3)c2C(=O)O)C(C)(C)C1` [#162, 5,5,7,7-Tetramethyl-2-[[4-(tetrahydropyran-4-ylmethoxy)benzoyl]amino]-4,6-dihydrobenzothiophene-3-carboxylic acid], for which half-maximal inhibition (IC50) required 39 nM.

For `COCC1CN(c2ccc(C(=O)Nc3sc4c(c3C(=O)O)CC(C)(C)CC4(C)C)cc2)C1` [#169, 2-[[4-[3-(Methoxymethyl)azetidin-1-yl]benzoyl]amino]-5,5,7,7-tetramethyl-4,6-dihydrobenzothiophene-3-carboxylic acid], the concentration for half-maximal inhibition (IC50) came to 15.5 nM.

As for `CC1(C)CCc2c(sc(NC(=O)c3cnc(N4CCOCC4)nc3)c2C(=O)O)C1` [#208, 6,6-Dimethyl-2-[(2-morpholinopyrimidine-5-carbonyl)amino]-5,7-dihydro-4H-benzothiophene-3-carboxylic acid], the 50% inhibitory concentration (IC50) stood at 740 nM.

`CC1(C)Cc2c(sc(NC(=O)c3ccc(N4CC5(COC5)C4)cc3)c2C(=O)O)C(C)(C)C1` [Compound #143, 5,5,7,7-Tetramethyl-2-[[4-(2-oxa-6-azaspiro[3.3]heptan-6-yl)benzoyl]amino]-4,6-dihydrobenzothiophene-3-carboxylic acid]: half-maximal inhibition (IC50) required 160 nM.

On to `CN(CC1CCOCC1)c1ccc(C(=O)Nc2sc3c(c2C(=O)O)CC(C)(C)CC3(C)C)cc1` [Compound #152, 5,5,7,7-Tetramethyl-2-[[4-[methyl(tetrahydropyran-4-ylmethyl)amino]benzoyl]amino]-4,6-dihydrobenzothiophene-3-carboxylicacid], for which the IC50 stood at 0.5 nM.

On to `CC1(C)Cc2c(sc(NC(=O)c3ccccn3)c2C(=O)O)C(C)(C)C1` [Compound #90, 5,5,7,7-Tetramethyl-2-(pyridine-2-carbonylamino)-4,6-dihydrobenzothiophene-3-carboxylic acid], for which inhibition was half-maximal at 600 nM (IC50).

`CC1(C)CCc2sc(NC(=O)c3ccc(Br)cc3)c(C(=O)O)c21` [Compound #158, 2-[(4-Bromobenzoyl)amino]-4,4-dimethyl-5,6-dihydro cyclopenta[b]thiophene-3-carboxylic acid]: the half-maximal inhibitory concentration (IC50) was 320 nM.

As for `CC1(C)Cc2c(sc(NC(=O)c3ccc(NCC4CCCCO4)cc3)c2C(=O)O)C(C)(C)C1` (centres unmarked) [#166, 5,5,7,7-Tetramethyl-2-[[4-(tetrahydropyran-2-ylmethylamino)benzoyl]amino]-4,6-dihydrobenzothiophene-3-carboxylic acid], the IC50 turned out to be 6.7 nM.

In the case of `CC1(C)CCc2sc(NC(=O)c3ccccc3)c(C(=O)O)c2C1` [Compound #26, 2-Benzamido-5,5-dimethyl-6,7-dihydro-4H-benzothiophene-3-carboxylic acid], inhibition was half-maximal at 84.9 nM (IC50).

For the molecule `CC1CC(C)(C)c2sc(NC(=O)c3ccccc3)c(C(=O)O)c21` (centres unmarked) [Compound #43, 2-Benzamido-4,6,6-trimethyl-4,5-dihydrocyclopenta[b]thiophene-3-carboxylic acid], it took 280 nM to reach half-maximal inhibition (IC50).

`COc1ccc(C(=O)Nc2sc3c(c2C(=O)O)CCC2(CC2)C3)cc1OC` [Compound #30, 2-[(3,4-Dimethoxybenzoyl)amino]spiro[5,7-dihydro-4H-benzothiophene-6,1′-cyclopropane]-3-carboxylic acid]: the IC50 was 70 nM.

`CC1(C)CCc2sc(NC(=O)c3ccc(OC(F)F)cc3)c(C(=O)O)c21` [Compound #39, 2-[[4-(Difluoromethoxy)benzoyl]amino]-4,4-dimethyl-5,6-dihydrocyclopenta[b]thiophene-3-carboxylic acid]: the IC50 came out at 277 nM.

As to `CC1(C)Cc2c(sc(NC(=O)c3ccc(N4CCC(O)CC4)cc3)c2C(=O)O)C(C)(C)C1` [Compound #34, 2-[[4-(4-Hydroxy-1-piperidyl)benzoyl]amino]-5,5,7,7-tetramethyl-4,6-dihydrobenzothiophene-3-carboxylic acid], inhibition was half-maximal at 113 nM (IC50).

`COCCN(C)c1ccc(C(=O)Nc2sc3c(c2C(=O)O)CC(C)(C)CC3(C)C)cc1` [Compound #150, 2-[[4-[2-Methoxyethyl(methyl)amino]benzoyl]amino]-5,5,7,7-tetramethyl-4,6-dihydrobenzothiophene-3-carboxylic acid] had a 50% inhibitory concentration (IC50) of 3.9 nM.

As to `CC1(C)Cc2c(sc(NC(=O)c3ccc(NC4CCCCC4)cc3)c2C(=O)O)C(C)(C)C1` [Compound #149, 2-[[4-(Cyclohexylamino)benzoyl]amino]-5,5,7,7-tetramethyl-4,6-dihydrobenzothiophene-3-carboxylic acid], the IC50 was found to be 7.1 nM.

`CC1(C)Cc2c(sc(NC(=O)c3ccc(NC4COC4)cc3)c2C(=O)O)C(C)(C)C1` [Compound #139, 5,5,7,7-Tetramethyl-2-[[4-(oxetan-3-ylamino)benzoyl]amino]-4,6-dihydrobenzothiophene-3-carboxylic acid] yielded a half-inhibitory concentration (IC50) of 11 nM.

The molecule `CC1(C)CCc2c(sc(NC(=O)c3ccc(OC(F)(F)F)cc3)c2C(=O)O)C1` [Compound #24, 6,6-Dimethyl-2-[[4-(trifluoromethoxy)benzoyl]amino]-5,7-dihydro-4H-benzothiophene-3-carboxylic acid] gave an IC50 of 160 nM.

`CC1(C)CCc2c(sc(NC(=O)c3ccc(N4CCOCC4)nc3)c2C(=O)O)C1` [#204, 6,6-Dimethyl-2-[(6-morpholinopyridine-3-carbonyl)amino]-5,7-dihydro-4H-benzothiophene-3-carboxylic acid] returned an IC50 of 260 nM.

With `CC1(C)Cc2c(sc(NC(=O)c3ccc(NCC4CCCOC4)cc3)c2C(=O)O)C(C)(C)C1` (centres unmarked) [Compound #141, 5,5,7,7-Tetramethyl-2-[[4-(tetrahydropyran-3-ylmethylamino)benzoyl]amino]-4,6-dihydrobenzothiophene-3-carboxylic acid], the IC50 was determined as 3.3 nM.

The molecule `CC1(C)Cc2c(sc(NC(=O)c3ccc(N4CCC5(CC4)COC5)cc3)c2C(=O)O)C(C)(C)C1` [Compound #144, 5,5,7,7-Tetramethyl-2-[[4-(2-oxa-7-azaspiro[3.5]nonan-7-yl)benzoyl]amino]-4,6-dihydrobenzothiophene-3-carboxylic acid] displayed an IC50 of 35 nM.

Molecule `CC1(C)CCCc2sc(NC(=O)c3ccccc3)c(C(=O)O)c21` [Compound #42, 2-Benzamido-4,4-dimethyl-6,7-dihydro-5H-benzothiophene-3-carboxylic acid] yielded an IC50 of 192 nM.
